# Test results from article PMC10663540, “Structure-based discovery of dual pathway inhibitors for SARS-CoV-2 entry” (Nature Communications, 2023).
# Several values for one entry are separate records, joined by “and”; a condition that tells them apart may be missing. Identical values can stand only once. Like-named read-outs stand apart in the source and are kept apart here.
# Legend:
# SARS-CoV-2 Delta variant = test: microbe, parasite or virus in culture; format: cell-based
# [1] = test system: SARS-CoV-2 Omicron BA.2 variant; test: microbe, parasite or virus in culture; format: cell-based; conditions: for EC50: Severe acute respiratory syndrome coronavirus 2
# [2] = Severe acute respiratory syndrome coronavirus 2, Calu-3; read-out: Antiviral efficacy EC50 (95% CI)
# [3] = Calu-3, Omicron BA.2, […], read-out: Antiviral efficacy EC50 (95% CI)
# [4] = Severe acute respiratory syndrome coronavirus 2, Calu-3, read-out: Antiviral efficacy EC50 (95% CI)
# [5] = Severe acute respiratory syndrome coronavirus 2, Calu-3, read-out: Inhibition: Delta
# [6] = Calu-3, Omicron BA.2, one representative replicate, before reprocessing, read-out: EC50, original manuscript version
# [7] = Calu-3; 0.0012207 μM; replicates
# [8] = Calu-3; 0.00488281 μM; replicates
# [9] = Calu-3; 0.0195312 μM; replicates
# [10] = Calu-3; 0.078125 μM; replicates
structure (smiles),measurement,setting,value
NC(N)=Nc1ccc(C(=O)OCCN2CCN(C(=O)N[C@@H](Cc3ccccc3)C(=O)N[C@H](/C=C/S(=O)(=O)c3ccccc3)CCc3ccccc3)CC2)cc1 [212-148],Inhibition: Delta/Calu-3,SARS-CoV-2 Delta variant; 212-148 8 μM; Fig. 5e,89.60% and 87.76%
same,Inhibition: Delta/Calu-3,SARS-CoV-2 Delta variant; 212-148 40 μM; Fig. 5e,98.01%
same,Selectivity index (SI = CC50/EC50),SARS-CoV-2 Delta variant; Calu-3; Delta,"1,476"
same,block of viral replication in TCID50 assay (in words),SARS-CoV-2 Delta variant; Calu-3; delta strain or omicron strain BA.2 (Fig. 5e),completely blocked
same,inhibition at 8 µM,"SARS-CoV-2 Delta variant; Severe acute respiratory syndrome coronavirus 2, Calu-3, 212-148 8 μM; Fig. 5e; read-out: Inhibition: Delta/Calu-3",85.5%
same,inhibition at 40 µM,"SARS-CoV-2 Delta variant; Severe acute respiratory syndrome coronavirus 2, Calu-3, 212-148 40 μM; Fig. 5e; read-out: Inhibition: Delta/Calu-3",96.1%
same,inhibition at 200 µM,"SARS-CoV-2 Delta variant; Severe acute respiratory syndrome coronavirus 2, Calu-3, 212-148 200 μM; Fig. 5e",100%
same,EC50,SARS-CoV-2 Delta variant; [2],235 nM
same,Inhibition: BA.2/Calu-3,"[1]; 212-148 0.00256 μM, Fig. 5e",7.11%
same,Inhibition: BA.2/Calu-3,"[1]; 212-148 0.064 μM, Fig. 5e",29.70% and 52.65%
same,Inhibition: BA.2/Calu-3,"[1]; 212-148 8 μM, Fig. 5e",88.58%
same,Selectivity index (SI = CC50/EC50),"[1]; Calu-3, Omicron BA.2","5,391"
same,inhibition at 8 µM,"[1]; Severe acute respiratory syndrome coronavirus 2, Calu-3, 212-148 8 μM, Fig. 5e",85.9%
same,inhibition at 40 µM,"[1]; Severe acute respiratory syndrome coronavirus 2, Calu-3, 212-148 40 μM, Fig. 5e",99.4%
same,EC50,[1]; [3],64.4 nM
CN(C)C(=O)COC(=O)Cc1ccc(OC(=O)c2ccc(NC(=N)N)cc2)cc1 [Camostat],Inhibition: Delta,SARS-CoV-2 Delta variant; 0.078125 µM,31.59% and 52.79%
same,Inhibition: Delta,SARS-CoV-2 Delta variant; 0.3125 µM,64%
same,Inhibition: Delta,SARS-CoV-2 Delta variant; 1.25 µM,96.40%
same,Inhibition: Delta,SARS-CoV-2 Delta variant; 5 µM,92.99%
same,Inhibition: Delta,SARS-CoV-2 Delta variant; 20 µM,91.24%
same,EC50,SARS-CoV-2 Delta variant; [4],109 nM
same,inhibition at 0.3125 µM,SARS-CoV-2 Delta variant; [5],53.9%
same,inhibition at 1.25 µM,SARS-CoV-2 Delta variant; [5],95.4%
same,inhibition at 5 µM,SARS-CoV-2 Delta variant; [5],92.4%
same,inhibition at 20 µM,SARS-CoV-2 Delta variant; [5],88.9%
CCOC(=O)C1OC1C(=O)NC(CC(C)C)C(=O)NCCC(C)C (centres unmarked) [E64d],Inhibition: Omicron BA.2,[1]; 0.0411523 µM,-1.22%
same,Inhibition: Omicron BA.2,[1]; 0.123457 µM,20.89% and 27.12%
same,Inhibition: Omicron BA.2,[1]; 0.37037 µM,68.35% and 58.49%
same,Inhibition: Omicron BA.2,[1]; 1.11111 µM,89.97% and 78.59%
same,Inhibition: Omicron BA.2,[1]; 3.33333 µM,93.67% and 90.37%
same,Inhibition: Omicron BA.2,[1]; 10 µM,97.22% and 98.95%
same,EC50,[1]; [3],240 nM
same,EC50,[1]; [6],227 nM
CCOC(=O)c1ccc(OC(=O)CCCCCNC(=N)N)cc1 [Gabexate],Inhibition: Delta,SARS-CoV-2 Delta variant; [7],14.57% and 29.88%
same,Inhibition: Delta,SARS-CoV-2 Delta variant; [8],-54.36% and -37.95%
same,Inhibition: Delta,SARS-CoV-2 Delta variant; [9],-64.93% and -37.95%
same,Inhibition: Delta,SARS-CoV-2 Delta variant; [10],31.59% and -7.79%
same,Inhibition: Delta,SARS-CoV-2 Delta variant; Calu-3; 0.3125 μM; replicates,39.67%
same,Inhibition: Delta,SARS-CoV-2 Delta variant; Calu-3; 1.25 μM; replicates,-34.59% and 12.43%
same,Inhibition: Delta,SARS-CoV-2 Delta variant; Calu-3; 5 μM; replicates,64.87% and -37.95%
same,Inhibition: Delta,SARS-CoV-2 Delta variant; Calu-3; 20 μM; replicates,-11.09% and 39.67%
same,inhibitory efficacy (in words),SARS-CoV-2 Delta variant; Calu-3; Delta,negligible
same,inhibition at 0.3125 µM,"SARS-CoV-2 Delta variant; Severe acute respiratory syndrome coronavirus 2, Calu-3, Calu-3; 0.3125 μM; replicates; read-out: Inhibition: Delta",53.9%
same,EC50,SARS-CoV-2 Delta variant; [2],> 20000 nM
CN1CCN(C(=O)N[C@@H](Cc2ccccc2)C(=O)N[C@H](/C=C/S(=O)(=O)c2ccccc2)CCc2ccccc2)CC1 [K777],Inhibition: Delta,SARS-CoV-2 Delta variant; Calu-3; 0.00256 μM; replicates,-6.46e-6% and 5.80% and -22.49%
same,Inhibition: Delta,SARS-CoV-2 Delta variant; Calu-3; 0.0128 μM; replicates,16.53% (2×) and 0.45%
same,Inhibition: Delta,SARS-CoV-2 Delta variant; Calu-3; 0.064 μM; replicates,24.66% (2×) and 0.45%
same,Inhibition: Delta,SARS-CoV-2 Delta variant; Calu-3; 8 μM; replicates,82.03%
same,Inhibition: Delta,SARS-CoV-2 Delta variant; Calu-3; 40 μM; replicates,97.04%
same,inhibition at 8 µM,"SARS-CoV-2 Delta variant; Severe acute respiratory syndrome coronavirus 2, Calu-3, Calu-3; 8 μM; replicates; read-out: Inhibition: Delta",85.5%
same,inhibition at 40 µM,"SARS-CoV-2 Delta variant; Severe acute respiratory syndrome coronavirus 2, Calu-3, Calu-3; 40 μM; replicates; read-out: Inhibition: Delta",98%
same,EC50,SARS-CoV-2 Delta variant; [2],638 nM
same,Inhibition: Omicron BA.2,"[1]; Calu-3, 0.00457247 μM, rep1-rep2",-0.32% and 3.09%
same,Inhibition: Omicron BA.2,"[1]; Calu-3, 0.123457 μM, rep1-rep2",90.17%
same,Inhibition: Omicron BA.2,"[1]; Calu-3, 0.37037 μM, rep1-rep2",90.95%
same,Inhibition: Omicron BA.2,"[1]; Calu-3, 1.11111 μM, rep1-rep2",85.59%
same,Inhibition: Omicron BA.2,"[1]; Calu-3, 3.33333 μM, rep1-rep2",91.43%
same,Inhibition: Omicron BA.2,"[1]; Calu-3, 10 μM, rep1-rep2",91.43%
same,inhibition at 0.123457 µM,"[1]; Severe acute respiratory syndrome coronavirus 2, Calu-3, Calu-3, 0.123457 μM, rep1-rep2",70.6%
same,inhibition at 0.37037 µM,"[1]; Severe acute respiratory syndrome coronavirus 2, Calu-3, Calu-3, 0.37037 μM, rep1-rep2",87.7%
same,inhibition at 1.11111 µM,"[1]; Severe acute respiratory syndrome coronavirus 2, Calu-3, Calu-3, 1.11111 μM, rep1-rep2",97.1%
same,inhibition at 3.33333 µM,"[1]; Severe acute respiratory syndrome coronavirus 2, Calu-3, Calu-3, 3.33333 μM, rep1-rep2",98%
same,inhibition at 10 µM,"[1]; Severe acute respiratory syndrome coronavirus 2, Calu-3, Calu-3, 10 μM, rep1-rep2",99.2%
same,EC50,[1]; [3],14 nM
same,EC50,[1]; [6],77.7 nM
N=C(N)c1ccc2cc(OC(=O)c3ccc(N=C(N)N)cc3)ccc2c1 [Nafamostat],Inhibition: Delta,SARS-CoV-2 Delta variant; 0.00128 µM,-1.10% and 5.80% and -6.46e-6%
same,Inhibition: Delta,SARS-CoV-2 Delta variant; 20 µM,99.61%
same,EC50,SARS-CoV-2 Delta variant; [4],26.3 nM
same,inhibition at 0.8 µM,SARS-CoV-2 Delta variant; [5],98.8%
same,inhibition at 4 µM,SARS-CoV-2 Delta variant; [5],98.6%
same,inhibition at 20 µM,SARS-CoV-2 Delta variant; [5],99.8%
same,inhibition at […],SARS-CoV-2 Delta variant; [5],90.6% and 87.8%
CC(C)(NS(=O)(=O)c1ccc2c(Cl)cnc(N=C(N)N)c2c1)C(=O)O [UK-371804],Inhibition: Delta,SARS-CoV-2 Delta variant; [7],-13.87% and -11.09%
same,Inhibition: Delta,SARS-CoV-2 Delta variant; [8],-7.79% and -36.72%
same,Inhibition: Delta,SARS-CoV-2 Delta variant; [9],-13.87% and -11.09%
same,Inhibition: Delta,SARS-CoV-2 Delta variant; [10],5.76%
same,Inhibition: Delta,SARS-CoV-2 Delta variant; Calu-3; 0.3125 μM; replicates,29.88% and 14.57%
same,Inhibition: Delta,SARS-CoV-2 Delta variant; Calu-3; 1.25 μM; replicates,77.84%
same,Inhibition: Delta,SARS-CoV-2 Delta variant; Calu-3; 5 μM; replicates,90.58%
same,Inhibition: Delta,SARS-CoV-2 Delta variant; Calu-3; 20 μM; replicates,90.58%
same,Selectivity index (SI = CC50/EC50),SARS-CoV-2 Delta variant; Calu-3; Delta,405
same,inhibition at 0.078125 µM,"SARS-CoV-2 Delta variant; Severe acute respiratory syndrome coronavirus 2, Calu-3, Calu-3; 0.078125 μM; replicates",7.48%
same,inhibition at 1.25 µM,"SARS-CoV-2 Delta variant; Severe acute respiratory syndrome coronavirus 2, Calu-3, Calu-3; 1.25 μM; replicates; read-out: Inhibition: Delta",77.3%
same,inhibition at 5 µM,"SARS-CoV-2 Delta variant; Severe acute respiratory syndrome coronavirus 2, Calu-3, Calu-3; 5 μM; replicates; read-out: Inhibition: Delta",88.6%
same,inhibition at 20 µM,"SARS-CoV-2 Delta variant; Severe acute respiratory syndrome coronavirus 2, Calu-3, Calu-3; 20 μM; replicates; read-out: Inhibition: Delta",93%
same,EC50,SARS-CoV-2 Delta variant; [2],425 nM
